According to patent US9365502B2, “Neuroactive substituted cyclopenta[b]phenanthrenes as modulators for GABA type-A receptors” (priority 2013, dated 2016):
Read-outs that look alike come from different tables or passages of the source.

Experiments:
[1] = target: rat α1β2γ2L type GABAA receptors expressed in Xenopus laevis oocytes (Rattus norvegicus (Rat), UniProt P62813+P63138, INS375LLRMFSFK); experiment: Potentiation of GABA-mediated chloride currents, oocyte electrophysiology; format: cell-based; conditions: ± SEM; for Oocyte electrophysiology 0.1 μM (ratio of currents in presence/absence of compound): 0.1 μM compound; for Oocyte electrophysiology 0.1 μM (ratio of currents in presence/absence of compound) / Oocyte electrophysiology 1.0 μM (ratio of currents in presence/absence of compound) / Oocyte electrophysiology 10 μM (ratio of currents in presence/absence of compound): 2 μM GABA, N>=4; for Oocyte electrophysiology 1.0 μM (ratio of currents in presence/absence of compound): 1.0 μM compound; for Oocyte electrophysiology (gating) 10 μM (ratio of compound only current/2 μM GABA current): 10 μM compound in the absence of GABA; for Oocyte electrophysiology 10 μM (ratio of currents in presence/absence of compound): 10 μM compound
Procedure: The compounds of the present disclosure were evaluated for the ability to potentiate chloride currents mediated by 2 μM GABA at rat α1β2γ2L type GABAA receptors expressed in Xenopus laevis oocytes and the results are shown in Table 2.
The GABA concentration used for the control response was 2 μM. Each compound was evaluated on at least four different oocytes at the concentrations indicated, and the results reported are the ratio of currents measured in the presence/absence of added compound. Gating represents direct current gated by 10 μM compound in the absence of GABA, and this current is reported as the ratio of compound only current/2 μM GABA current. Error limits are calculated as standard error of the mean (N≧4). Methods used are known in the art (see Jiang, X., et al.).

[2] = tested on: Tadpole; experiment: Tadpole loss of righting (LRR) and loss of swimming (LSR) reflexes; format: in vivo; conditions: ± SEM
Procedure: Table 3 discloses the anesthetic effects of the compounds of the present disclosure. In particular, the anesthetic effect of the compounds of the present disclosure on Loss of Righting Reflex (LRR) and Loss of Swimming Reflex (LSR).
Methods used are known in the art (see Jiang, X., et al.). Error limits are calculated as standard error of the mean (N=10 or more animals at each of five or more different concentrations).

[3] = target: picrotoxin binding site on GABAA receptors; experiment: [35S]-TBPS displacement (inhibition of [35S]-TBPS binding); conditions: mean ± SEM, duplicate experiments performed in triplicate
Procedure: The IC50 values for non-competitive displacers of [^35S]-TBPS from the picrotoxin binding site on GABAA receptors are reported in Table 1.
Results presented are from duplicate experiments performed in triplicate. Error limits are calculated as standard error of the mean. Methods used are known in the art (see Jiang, X., et al., Neurosteroid analogues. 9. Conformationally constrained pregnanes: structure-activity studies of 13,24-cyclo-18,21-dinorcholane analogues of the GABA modulatory and anesthetic steroids (3α,5α)- and […]. J. Med. Chem., 46: 5334-48 (2003)—the contents of which are hereby incorporated by reference in their entirety).

[4] = loss of righting reflex, read-out: Tadpole LRR EC50
[5] = loss of swimming reflex, read-out: Tadpole LSR EC50

C[C@]12C[C@H]3CC[C@@H]4C[C@@H](O)CC[C@H]4[C@@H]3C[C@@H]1CC[C@@H]2C#N [MQ-38]
Oocyte electrophysiology 0.1 μM (ratio of currents in presence/absence of compound) [1]: 1.51 ± 0.19 | Oocyte electrophysiology 1.0 μM (ratio of currents in presence/absence of compound) [1]: 6.92 ± 1.29 | Oocyte electrophysiology (gating) 10 μM (ratio of compound only current/2 μM GABA current) [1]: 0.51 ± 0.48 | Oocyte electrophysiology 10 μM (ratio of currents in presence/absence of compound) [1]: 12.50 ± 1.98 | EC50 [2, 4]: 0.38 ± 0.06 µM | EC50 [2, 5]: 0.87 µM | IC50 [3]: 0.052 ± 0.007 µM

CC(=O)[C@H]1CCC2CC3C(CCC4C[C@H](O)CCC43)C[C@@]21C (stereo partly drawn) [MQ-39]
Oocyte electrophysiology 0.1 μM (ratio of currents in presence/absence of compound) [1]: 1.32 ± 0.03 | Oocyte electrophysiology 1.0 μM (ratio of currents in presence/absence of compound) [1]: 3.82 ± 0.36 | Oocyte electrophysiology (gating) 10 μM (ratio of compound only current/2 μM GABA current) [1]: 0.03 ± 0.0 | Oocyte electrophysiology 10 μM (ratio of currents in presence/absence of compound) [1]: 7.91 ± 0.64 | EC50 [2, 4]: 0.34 µM | EC50 [2, 5]: 1.07 µM | IC50 [3]: 0.065 ± 0.007 µM

C[C@@]12CC3CC[C@H]4C[C@H](O)CCC4C3CC1CCC2=O (stereo partly drawn) [MQ-47]
Oocyte electrophysiology 0.1 μM (ratio of currents in presence/absence of compound) [1]: 1.10 ± 0.20 | Oocyte electrophysiology 1.0 μM (ratio of currents in presence/absence of compound) [1]: 1.50 ± 0.28 | Oocyte electrophysiology (gating) 10 μM (ratio of compound only current/2 μM GABA current) [1]: −0.01 ± 0.03 | Oocyte electrophysiology 10 μM (ratio of currents in presence/absence of compound) [1]: 6.42 ± 1.11 | EC50 [2, 4]: 3.76 ± 5.22 µM | EC50 [2, 5]: > 10 µM | IC50 [3]: 1.33 µM

C[C@]12CC(=O)CC1CC1C(CCC3C[C@H](O)CCC31)C2 (stereo partly drawn) [MQ-48]
Oocyte electrophysiology 0.1 μM (ratio of currents in presence/absence of compound) [1]: 1.03 ± 0.01 | Oocyte electrophysiology 1.0 μM (ratio of currents in presence/absence of compound) [1]: 1.64 ± 0.06 | Oocyte electrophysiology (gating) 10 μM (ratio of compound only current/2 μM GABA current) [1]: 0.01 ± 0.0 | Oocyte electrophysiology 10 μM (ratio of currents in presence/absence of compound) [1]: 7.10 ± 1.51 | EC50 [2, 4]: 2.39 ± 0.28 µM | EC50 [2, 5]: 7.49 µM | IC50 [3]: 0.282 ± 0.197 µM

C[C@@]12CC3CCC4C[C@H](O)CCC4C3CC1CC[C@H]2C#N (stereo partly drawn) [MQ-49]
Oocyte electrophysiology 0.1 μM (ratio of currents in presence/absence of compound) [1]: 0.92 ± 0.01 | Oocyte electrophysiology 1.0 μM (ratio of currents in presence/absence of compound) [1]: 1.02 ± 0.01 | Oocyte electrophysiology (gating) 10 μM (ratio of compound only current/2 μM GABA current) [1]: 0.02 ± 0.01 | Oocyte electrophysiology 10 μM (ratio of currents in presence/absence of compound) [1]: 1.86 ± 0.06 | EC50 [2, 4]: 2.4 ± 0.76 µM | EC50 [2, 5]: 5.48 ± 0.12 µM | IC50 [3]: 1.58 µM

CC(=O)[C@@H]1CC[C@@H]2C[C@H]3[C@@H](CC[C@H]4C[C@H](O)CC[C@@H]43)C[C@]21C [MQ-50]
Oocyte electrophysiology 0.1 μM (ratio of currents in presence/absence of compound) [1]: 1.02 ± 0.01 | Oocyte electrophysiology 1.0 μM (ratio of currents in presence/absence of compound) [1]: 1.18 ± 0.02 | Oocyte electrophysiology (gating) 10 μM (ratio of compound only current/2 μM GABA current) [1]: 0.0 ± 0.0 | Oocyte electrophysiology 10 μM (ratio of currents in presence/absence of compound) [1]: 1.98 ± 0.07 | EC50 [2, 4]: 2.01 ± 1.3 µM | EC50 [2, 5]: 10 µM | IC50 [3]: 1.06 µM

C[C@@]12C[C@@H]3CC[C@@H]4C[C@H](O)CC[C@@H]4[C@H]3C[C@H]1CCC2=O [MQ-51]
Oocyte electrophysiology 0.1 μM (ratio of currents in presence/absence of compound) [1]: 0.97 ± 0.03 | Oocyte electrophysiology 1.0 μM (ratio of currents in presence/absence of compound) [1]: 1.02 ± 0.02 | Oocyte electrophysiology (gating) 10 μM (ratio of compound only current/2 μM GABA current) [1]: 0.08 ± 0.08 | Oocyte electrophysiology 10 μM (ratio of currents in presence/absence of compound) [1]: 1.59 ± 0.11 | EC50 [2, 4]: > 10 µM | EC50 [2, 5]: > 10 µM | IC50 [3]: 5.86 µM

C[C@@]12CC3CCC4C[C@H](O)CCC4C3CC1CC[C@]21CO1 (stereo partly drawn) [MQ-54]
Oocyte electrophysiology 0.1 μM (ratio of currents in presence/absence of compound) [1]: 1.01 ± 0.05 | Oocyte electrophysiology 1.0 μM (ratio of currents in presence/absence of compound) [1]: 4.03 ± 0.31 | Oocyte electrophysiology (gating) 10 μM (ratio of compound only current/2 μM GABA current) [1]: 0.05 ± 0.01 | Oocyte electrophysiology 10 μM (ratio of currents in presence/absence of compound) [1]: 11.41 ± 1.18 | EC50 [2, 4]: 3.34 ± 0.11 µM | EC50 [2, 5]: 5.48 ± 0.2 µM | IC50 [3]: 1.99 µM

C[C@@]12CC[C@H](O)C[C@@H]1CC[C@@H]1C[C@]3(C)C(=O)CCC3C[C@H]12 (stereo partly drawn) [MQ-83]
Oocyte electrophysiology 0.1 μM (ratio of currents in presence/absence of compound) [1]: 0.85 ± 0.07 | Oocyte electrophysiology 1.0 μM (ratio of currents in presence/absence of compound) [1]: 1.03 ± 0.06 | Oocyte electrophysiology (gating) 10 μM (ratio of compound only current/2 μM GABA current) [1]: 0.1 ± 0.2 | Oocyte electrophysiology 10 μM (ratio of currents in presence/absence of compound) [1]: 6.35 ± 0.81 | EC50 [2, 4]: 2.19 ± 0.44 µM | EC50 [2, 5]: 5.48 ± 0.12 µM | IC50 [3]: 0.748 ± 0.103 µM

C[C@@]12CC[C@@H](O)C[C@@H]1CC[C@H]1C[C@@]3(C)[C@H](CC[C@@]34CO4)C[C@@H]12 [MQ-85]
Oocyte electrophysiology 0.1 μM (ratio of currents in presence/absence of compound) [1]: 2.08 ± 0.23 | Oocyte electrophysiology 1.0 μM (ratio of currents in presence/absence of compound) [1]: 9.59 ± 1.77 | Oocyte electrophysiology (gating) 10 μM (ratio of compound only current/2 μM GABA current) [1]: 0.10 ± 0.02 | Oocyte electrophysiology 10 μM (ratio of currents in presence/absence of compound) [1]: 17.18 ± 3.31 | EC50 [2, 4]: 0.35 ± 0.02 µM | EC50 [2, 5]: 0.55 ± 0.01 µM | IC50 [3]: 0.029 ± 0.007 µM

C[C@@]12CC[C@H](O)C[C@H]1CC[C@@H]1C[C@]3(C)C(C#N)=CCC3CC12 (stereo partly drawn) [MQ-86]
Oocyte electrophysiology 0.1 μM (ratio of currents in presence/absence of compound) [1]: 2.25 ± 0.11 | Oocyte electrophysiology 1.0 μM (ratio of currents in presence/absence of compound) [1]: 10.95 ± 1.05 | Oocyte electrophysiology (gating) 10 μM (ratio of compound only current/2 μM GABA current) [1]: 0.16 ± 0.03 | Oocyte electrophysiology 10 μM (ratio of currents in presence/absence of compound) [1]: 19.64 ± 2.06 | EC50 [2, 4]: 0.38 ± 0.05 µM | EC50 [2, 5]: 0.55 ± 0.01 µM | IC50 [3]: 0.043 ± 0.003 µM

C[C@@]12CC[C@H](O)C[C@H]1CC[C@@H]1C[C@@]3(C)C(CC[C@@H]3C#N)CC12 (stereo partly drawn) [MQ-87]
Oocyte electrophysiology 0.1 μM (ratio of currents in presence/absence of compound) [1]: 1.93 ± 0.14 | Oocyte electrophysiology 1.0 μM (ratio of currents in presence/absence of compound) [1]: 10.95 ± 0.55 | Oocyte electrophysiology (gating) 10 μM (ratio of compound only current/2 μM GABA current) [1]: 0.04 ± 0.01 | Oocyte electrophysiology 10 μM (ratio of currents in presence/absence of compound) [1]: 16.10 ± 0.87 | EC50 [2, 4]: 0.1 ± 0.01 µM | EC50 [2, 5]: 0.33 µM | IC50 [3]: 0.014 ± 0.002 µM
